Assay results: the NIST ThermoML archive (doi:10.1016/j.jct.2008.06.017)
± gives the expanded uncertainty stated by the source.

Columns and labels:
[1] = xn = mol fraction of the nth substance listed; conditions: Liquid, Vibrating tube method
[2] = Liquid, Vibrating tube method

For `COC(=O)OC` [dimethyl carbonate] + C=COC(C)=O, the mass density ([1]; 293.15 K, x1 = 1) was 1069.79 ± 0.067 kg/m3, the mass density ([1]; 303.15 K, x1 = 1) was 1056.75 ± 0.063 kg/m3 and the mass density ([1]; 313.15 K, x1 = 1) was 1043.37 ± 0.06 kg/m3.

In the case of `C=CCOC(=O)C(=C)C` [2-propenyl 2-methylpropenoate], the mass density ([2]; 293.15 K) is reported as 932.965 ± 0.14 kg/m3, the mass density ([2]; 303.15 K) is reported as 922.525 ± 0.14 kg/m3 and the mass density ([2]; 313.15 K) is reported as 912.072 ± 0.15 kg/m3.

`C=C(C)C(=O)OCCCC` [butyl 2-methyl-2-propenoate] showed a mass density ([2]; 293.15 K) of 895.231 ± 0.11 kg/m3, a mass density ([2]; 303.15 K) of 885.991 ± 0.12 kg/m3 and a mass density ([2]; 313.15 K) of 876.19 ± 0.12 kg/m3.

Work on `COC(=O)OC` [dimethyl carbonate] + C=CCOC(=O)C(=C)C yielded a mass density ([1]; 293.15 K, x1 = 1) of 1069.79 ± 0.067 kg/m3, a mass density ([1]; 303.15 K, x1 = 1) of 1056.75 ± 0.063 kg/m3 and a mass density ([1]; 313.15 K, x1 = 1) of 1043.37 ± 0.06 kg/m3.

Work on `C=COC(C)=O` [vinyl acetate] + COC(=O)OC yielded a mass density ([1]; 293.15 K, x2 = 0) of 931.95 ± 0.067 kg/m3, a mass density ([1]; 293.15 K, x2 = 0.025) of 935.258 ± 0.071 kg/m3 and a mass density ([1]; 293.15 K, x2 = 0.0504) of 938.581 ± 0.07 kg/m3. For the same molecule, the mass density ([1]; 293.15 K, x2 = 0.1002) was 945.231 ± 0.069 kg/m3, the mass density ([1]; 293.15 K, x2 = 0.1537) was 952.421 ± 0.067 kg/m3 and the mass density ([1]; 293.15 K, x2 = 0.1999) was 958.65 ± 0.065 kg/m3. It also gave a mass density ([1]; 293.15 K, x2 = 0.25) of 965.315 ± 0.064 kg/m3, a mass density ([1]; 293.15 K, x2 = 0.3001) of 972.123 ± 0.062 kg/m3 and a mass density ([1]; 293.15 K, x2 = 0.3498) of 978.865 ± 0.061 kg/m3. For the same molecule, the mass density ([1]; 293.15 K, x2 = 0.4002) was 985.701 ± 0.059 kg/m3, the mass density ([1]; 293.15 K, x2 = 0.4503) was 992.611 ± 0.058 kg/m3 and the mass density ([1]; 293.15 K, x2 = 0.5) was 999.443 ± 0.057 kg/m3. For the same molecule, the mass density ([1]; 293.15 K, x2 = 0.5502) was 1006.39 ± 0.058 kg/m3, the mass density ([1]; 293.15 K, x2 = 0.6001) was 1013.38 ± 0.059 kg/m3 and the mass density ([1]; 293.15 K, x2 = 0.6495) was 1020.26 ± 0.061 kg/m3. For the same molecule, the mass density ([1]; 293.15 K, x2 = 0.6934) was 1026.46 ± 0.062 kg/m3, the mass density ([1]; 293.15 K, x2 = 0.7501) was 1034.48 ± 0.064 kg/m3 and the mass density ([1]; 293.15 K, x2 = 0.7971) was 1041.1 ± 0.065 kg/m3. The mass density ([1]; 293.15 K, x2 = 0.8499) was 1048.6 ± 0.067 kg/m3, the mass density ([1]; 293.15 K, x2 = 0.9002) was 1055.59 ± 0.069 kg/m3 and the mass density ([1]; 293.15 K, x2 = 0.9493) was 1062.61 ± 0.071 kg/m3. The mass density ([1]; 293.15 K, x2 = 0.975) was 1066.22 ± 0.071 kg/m3, the mass density ([1]; 303.15 K, x2 = 0) was 919.089 ± 0.071 kg/m3 and the mass density ([1]; 303.15 K, x2 = 0.025) was 922.4 ± 0.074 kg/m3. It also gave a mass density ([1]; 303.15 K, x2 = 0.0501) of 925.708 ± 0.074 kg/m3, a mass density ([1]; 303.15 K, x2 = 0.0999) of 932.33 ± 0.072 kg/m3 and a mass density ([1]; 303.15 K, x2 = 0.15) of 939.009 ± 0.07 kg/m3. The mass density ([1]; 303.15 K, x2 = 0.1998) was 945.689 ± 0.068 kg/m3, the mass density ([1]; 303.15 K, x2 = 0.2499) was 952.431 ± 0.067 kg/m3 and the mass density ([1]; 303.15 K, x2 = 0.3004) was 959.251 ± 0.065 kg/m3. For the same molecule, the mass density ([1]; 303.15 K, x2 = 0.35) was 965.996 ± 0.064 kg/m3, the mass density ([1]; 303.15 K, x2 = 0.4003) was 972.857 ± 0.062 kg/m3 and the mass density ([1]; 303.15 K, x2 = 0.4488) was 979.518 ± 0.061 kg/m3. For the same molecule, the mass density ([1]; 303.15 K, x2 = 0.4999) was 986.544 ± 0.059 kg/m3, the mass density ([1]; 303.15 K, x2 = 0.5496) was 993.403 ± 0.058 kg/m3 and the mass density ([1]; 303.15 K, x2 = 0.6) was 1000.41 ± 0.057 kg/m3. It also gave a mass density ([1]; 303.15 K, x2 = 0.6489) of 1007.22 ± 0.058 kg/m3, a mass density ([1]; 303.15 K, x2 = 0.6986) of 1014.13 ± 0.059 kg/m3 and a mass density ([1]; 303.15 K, x2 = 0.7494) of 1021.26 ± 0.061 kg/m3. The mass density ([1]; 303.15 K, x2 = 0.8) was 1028.36 ± 0.062 kg/m3, the mass density ([1]; 303.15 K, x2 = 0.8496) was 1035.38 ± 0.064 kg/m3 and the mass density ([1]; 303.15 K, x2 = 0.8999) was 1042.51 ± 0.066 kg/m3. For the same molecule, the mass density ([1]; 303.15 K, x2 = 0.9496) was 1049.56 ± 0.067 kg/m3, the mass density ([1]; 303.15 K, x2 = 0.9753) was 1053.22 ± 0.068 kg/m3 and the mass density ([1]; 313.15 K, x2 = 0) was 906.116 ± 0.075 kg/m3. For the same molecule, the mass density ([1]; 313.15 K, x2 = 0.0248) was 909.387 ± 0.078 kg/m3, the mass density ([1]; 313.15 K, x2 = 0.0501) was 912.718 ± 0.077 kg/m3 and the mass density ([1]; 313.15 K, x2 = 0.1003) was 919.392 ± 0.075 kg/m3. The mass density ([1]; 313.15 K, x2 = 0.1499) was 925.976 ± 0.073 kg/m3, the mass density ([1]; 313.15 K, x2 = 0.2001) was 932.73 ± 0.072 kg/m3 and the mass density ([1]; 313.15 K, x2 = 0.25) was 939.446 ± 0.07 kg/m3. For the same molecule, the mass density ([1]; 313.15 K, x2 = 0.2999) was 946.16 ± 0.068 kg/m3, the mass density ([1]; 313.15 K, x2 = 0.3502) was 953.002 ± 0.067 kg/m3 and the mass density ([1]; 313.15 K, x2 = 0.3999) was 959.753 ± 0.065 kg/m3. It also gave a mass density ([1]; 313.15 K, x2 = 0.45) of 966.575 ± 0.063 kg/m3, a mass density ([1]; 313.15 K, x2 = 0.4996) of 973.402 ± 0.062 kg/m3 and a mass density ([1]; 313.15 K, x2 = 0.5501) of 980.351 ± 0.06 kg/m3. It also gave a mass density ([1]; 313.15 K, x2 = 0.5998) of 987.189 ± 0.059 kg/m3, a mass density ([1]; 313.15 K, x2 = 0.6502) of 994.195 ± 0.058 kg/m3 and a mass density ([1]; 313.15 K, x2 = 0.7) of 1001.12 ± 0.057 kg/m3. The mass density ([1]; 313.15 K, x2 = 0.7501) was 1008.14 ± 0.058 kg/m3, the mass density ([1]; 313.15 K, x2 = 0.7999) was 1015.14 ± 0.059 kg/m3 and the mass density ([1]; 313.15 K, x2 = 0.8499) was 1022.15 ± 0.061 kg/m3. The mass density ([1]; 313.15 K, x2 = 0.8995) was 1029.12 ± 0.062 kg/m3, the mass density ([1]; 313.15 K, x2 = 0.9501) was 1036.31 ± 0.064 kg/m3 and the mass density ([1]; 313.15 K, x2 = 0.9746) was 1039.75 ± 0.065 kg/m3.
